According to US8227506B2, “Benzamidine compound” (Ajinomoto., Inc., priority 2005, dated 2012):

Tests used:
FXa = FXa (Homo sapiens, UniProt P00742); assay: Determination of activated factor X activity-inhibitory activity (chromogenic substrate S-2222); type: biochemical; conditions: negative logarithm of the concentration suppressing 50% of the reaction rate of the control, 0.015 U/ml FXa
Description: Determination of Activated Factor X Activity-Inhibitory Activity
(§1) Using a 96 well plate (#3396, Costar), 0.015 U/ml FXa (10 μL) and a test compound (10 μL) were blended with 100 mM Tris-HCl buffer (130 μL) containing 0.02% Tween 20, 0.1% PEG6000 and 0.2 M NaCl for 10 minutes, and a substrate for color development (0.2 mM S-2222 50 μL) was added thereto. Using a Microplate reader Benchmark Plus (BIO-RAD), the reaction rate was measured from the time course changes at absorbance 405 nm. The reaction rate of the control was taken as 100% and the negative logarithm of the concentration capable of suppressing 50% of the reaction rate of the control was taken as the pIC50 value.

[1] = target: activated factor IIa (thrombin) (Homo sapiens, UniProt P00734); assay: Determination of activated factor II (FIIa, thrombin)-inhibitory activity (chromogenic substrate S-2238); type: biochemical; conditions: negative logarithm of the concentration suppressing 50% of the reaction rate of the control, 0.125 U/ml thrombin
Description: Determination of Activated Factor II (FIIa, Thrombin)-Inhibitory Activity
as §1, with “0.125” for “0.015”, “activated factor IIa (thrombin)” for “FXa”, “(0.1” for “(0.2”, “S-2238” for “S-2222”

human plasma = assay: Determination of anticoagulant activity (aPTT measurement method); conditions: negative logarithm of the concentration prolonging the aPTT of the control to two-fold
Description: Determination of Anticoagulant Activity
The aPTT measurement method using an automatic blood coagulation time measuring device, Sysmex CA-3000 (TOA Medical Electronics Co., Ltd.) was performed. A solution (5 μl) of the test compound was placed in a sample tube (SU-40, TOA Medical Electronics Co., Ltd.), human plasma (hemolyance coagulation control I, iatron Laboratory, 45 μl) was added and the mixture was incubated at 37° C. for 3 minutes. To the plasma solution were added dataphay•APTT (rabbit brain-derived cephalin, DADE Behring Co., Ltd., 50 μl) and 0.02 M calcium chloride (50 μl), and the time up to the coagulation of plasma was automatically measured. The anticoagulation activity is shown as the negative logarithm of the concentration prolonging the aPTT of the control to two-fold (paPTT2).

[2] = Evaluation of stability in plasma; type: in vitro ADME; conditions: disappearance half-life in human plasma, 37° C., final drug concentration 10 μM, HPLC
Description: Evaluation of Stability in Plasma
A […] solution (5 μl) of the test compound was added to human plasma (495 μl) (final drug concentration, 10 μM), and the mixture was incubated at 37° C. Samples (each 50 μl) were taken at 0 minutes, 3 minutes, 10 minutes, and 20 minutes after addition of the drug solution, diluted with distilled water (50 μl), and the reaction was quenched by adding 100% acetonitrile (300 μl) and blending them. After deproteinization by centrifugation at 15000 rpm for 5 minutes, the mixture was concentrated to dryness by a centrifugal evaporator. The sample was dissolved in 120 μl of 0.1% aqueous TFA, the peak area or height of the test compound was calculated by HPLC, and the disappearance half-life was determined.

dog dialysis model = assay: Evaluation of dog dialysis model; type: in vivo, dog (Beagles)
Description: Evaluation of Dog Dialysis Model
Beagles (♂, 11 kg-15 kg, Nosan Corp., Japan) were anesthetized with pentobarbital (30 mg/kg, Tokyo Chemical Industry Co., Ltd.) by intravenous administration from the cephalic vein of the forefoot. A tracheostomy tube was inserted and artificial breathing was started. Placing needles [14G (serflow placing needle, Termo Corp.), 16G (happycath, Medikit Co., Led), 18G (serflow placing needle, Termo Corp.)] were punctured into the left femoral vein, right femoral artery, and right cephalic vein of the forefoot, respectively, and an outer shunt (Senko Medical Instrument Mfg. CO., Ltd.) filled with saline was set to the femoral vein and artery. For hemodialysis, a hemodialysis device for one person (DBG-01, Nikkiso Co., Ltd.), a hollow fiber dialyzer (FB-50, triacetate (CTA) film, Nipro Corp.) and sodium bicarbonate dialysate (AK-sorita•DL, Shimizu Corp.) were used.
The experiment was performed under the conditions of blood flow 80 ml/minute, dialysate flow 300 ml/minute, water removal amount 0 ml/minute. During dialysis, pentobarbital (12 mg/kg/hour) was continuously administered from the cephalic vein of the forefoot to maintain anesthesia. The control and test compounds were continuously administered into the arterial blood circuit (B) at 5 ml/hour. […]

Sequence of FXa (P00742 235-488 limits assumed): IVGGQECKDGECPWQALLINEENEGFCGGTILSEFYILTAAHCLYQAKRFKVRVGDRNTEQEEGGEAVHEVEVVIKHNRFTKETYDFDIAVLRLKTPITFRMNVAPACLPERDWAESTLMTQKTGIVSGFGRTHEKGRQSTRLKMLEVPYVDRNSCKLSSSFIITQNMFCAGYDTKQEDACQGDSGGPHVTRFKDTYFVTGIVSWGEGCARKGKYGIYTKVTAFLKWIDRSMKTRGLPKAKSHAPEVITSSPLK
Sequence of FXa (P00742 41-179 partner limits assumed): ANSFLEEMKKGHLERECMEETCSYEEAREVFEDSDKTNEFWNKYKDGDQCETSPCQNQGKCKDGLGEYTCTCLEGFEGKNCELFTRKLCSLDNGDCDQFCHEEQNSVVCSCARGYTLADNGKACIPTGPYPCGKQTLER

Structure (SMILES) | IC50 (FXa) | IC50 [1] | half-life at 10 μM [2] | bleeding time (dog dialysis model; Template method, 2 hour after the start of the administration, versus control (FIG. 2)) | paPTT2 (human plasma) | dialysis time (dog dialysis model; up to arterial circuit pressure 300 mmHg or 4 hours after the start of the dialysis (FIG. 1))
N=C(N)c1cccc(OCCOC(=O)c2ccc(C(=N)N3CCCC3)nc2)c1 [Ex. 37, 2-(3-amidinophenoxy)ethyl 6-[imino(pyrrolidin-1-yl)methyl]nicotinate tritrifluoroacetate] | 200 nM | > 100 µM |  |  | 5.2 | 
CC(C)COc1ccc(C(=N)N)cc1OCCOC(=O)c1ccc(C(=N)N2CCCC2)cc1 [Ex. 24, 2-{5-amidino-2-isobutoxyphenoxy}ethyl 4-[imino(pyrrolidin-1-yl)methyl]benzoate ditrifluoroacetate] | 39.8 nM | 12.6 µM | 0.7 min |  |  | 
COc1ccc(C(=N)N)cc1OCCOC(=O)c1ccc(C(=N)N2CCCC2)cc1 [Ex. 18, 2-{5-amidino-2-methoxyphenoxy}ethyl 4-[imino(pyrrolidin-1-yl)methyl]benzoate ditrifluoroacetate] | 251 nM | > 100 µM | 1.1 min |  | 5.2 | 
CC(=O)Oc1ccc(C(=N)N)cc1OCCOC(=O)c1ccc(C(=N)N2CCCC2)cc1 [Ex. 28, 2-{2-(acetoxy)-5-amidinophenoxy}ethyl 4-[imino(pyrrolidin-1-yl)methyl]benzoate ditrifluoroacetate] | 3.98 nM | 1.58 µM | 3.5 min |  |  | 

Continued by falling IC50 (FXa), values first:

IC50 (FXa) | IC50 [1] | half-life at 10 μM [2] | bleeding time (dog dialysis model; Template method, 2 hour after the start of the administration, versus control (FIG. 2)) | Structure (SMILES) | paPTT2 (human plasma) | dialysis time (dog dialysis model; up to arterial circuit pressure 300 mmHg or 4 hours after the start of the dialysis (FIG. 1))
63.1 nM | > 100 µM | 5.6 min |  | N=C(N)c1cccc(OCCOC(=O)c2ccc(OC3CCN(C(=N)N)CC3)cc2)c1 [Ex. 17, 2-{3-amidinophenoxy}ethyl 4-({1-amidinopiperidin-4-yl}oxy)benzoate ditrifluoroacetate] |  | 
63.1 nM | > 100 µM | 1.7 min |  | CC(=N)N1CCC(Oc2ccc(C(=O)OCCOc3cccc(C(=N)N)c3)cc2)CC1 [Ex. 16, 2-{3-amidinophenoxy}ethyl 4-[(1-(1-iminoethyl)piperidin-4-yl)oxy]benzoate ditrifluoroacetate] | 5.4 | 
15.8 nM | 63.1 µM | 2.7 min |  | N=C(N)c1ccc(OCCO)c(OCCOC(=O)c2ccc(C(=N)N3CCCC3)cc2)c1 [Ex. 13, 2-[5-amidino-2-(2-hydroxyethoxy)phenoxy]ethyl 4-[imino(pyrrolidin-1-yl)methyl]benzoate ditrifluoroacetate] | 6.4 | 
12.6 nM | 6.31 µM | 2.1 min | of the same level as the control | N#CCOc1ccc(C(=N)N)cc1OCCOC(=O)c1ccc(C(=N)N2CCCC2)cc1 [Ex. 20, 2-[5-amidino-2-(cyanomethoxy)phenoxy]ethyl 4-[imino(pyrrolidin-1-yl)methyl]benzoate ditrifluoroacetate] |  | 4 h
3.16 nM | 79.4 µM | 1.6 min |  | N=C(N)c1ccc(O)c(OCCOC(=O)c2ccc(C(=N)N3CCCC3)cc2)c1 [Ex. 6, 2-{5-amidino-2-hydroxyphenoxy}ethyl 4-[imino(pyrrolidin-1-yl)methyl]benzoate ditrifluoroacetate] | 6 | 
